Test [1] deals with T1, CaCYP51 Y132F+F145L (Candida albicans, UniProt P10613, F145L/Y132F).
T1 construct: made in house; host or cells: E. coli DH5α (pCWori+)
In words: CYP51 reconstitution assay. The class given is biochemical. The note with it: for remaining activity at 4 µM: 0.25 h, read-out: Residual CYP51 activity (%) ± SD. On the procedure: (§1) Azole antifungal agents were added in 2.5 μl dimethyl sulfoxide, followed by 10 min of incubation at 37°C prior to assay initiation with 4 mM β-NADPH-Na4. The samples were then shaken for 15 min at 37°C. Sterol metabolites were recovered by extraction with ethyl acetate, followed by derivatization with 0.1 ml N,O-bis(trimethylsilyl)trifluoroacetamide (BSTFA)–trimethylchlorosilane (TMCS) (99:1) and 0.3 ml anhydrous pyridine (2 h at 80°C), prior to analysis by gas chromatography-mass spectrometry (GC-MS) ([52]). IC50 determinations were performed in duplicate.

Test [2] has as its target T2, CaCYP51 Y132F+K143R (Candida albicans, UniProt P10613, K143R/Y132F).
T2 construct: made in house; host or cells: E. coli DH5α (pCWori+)
Description: CYP51 reconstitution assay. The class given is biochemical. The following applies: for remaining activity at 4 µM: 0.25 h, read-out: Residual CYP51 activity (%) ± SD. On the procedure:
as §1

Test [3] concerns C. albicans SC5314 strain with CaCYP51 substitution D278N+G464S. In words: CLSI broth microdilution MIC. It counts as cell-based, Candida albicans. The note with it: for MIC: Candida albicans, SC5314, RPMI 1640, 24 h, 35°C, 50% reduction in growth. An excerpt:
(§2) Strains expressing seven single mutations (Y132F, K143R, F145L, S405F, G448E, G450E, G464S) and three double mutations (Y132F+K143R, Y132F+F145L, D278N+G464S) were selected from a previous study ([36]). Two additional strains expressing the Y132H and D278N CYP51 gene mutations were created utilizing the SAT1/FLP cassette described previously ([44]). […] Successful transformants were screened on yeast-peptone-dextrose agar plates containing nourseothricin and confirmed via Southern hybridization. Genomic DNA from nourseothricin-screened transformants was digested with the HindIII restriction enzyme, and the resulting DNA digests were loaded on 1% agarose gels containing ethidium bromide. Digested samples were visualized briefly under UV light after approximately 2 h of electrophoresis (120 V) to confirm appropriate band separation. Lanes containing digested DNA in the gel were transferred onto a nitrocellulose membrane via vacuum suction, and DNA was cross-linked to the membrane through UV exposure. PCR amplification of the genomic DNA from parent isolate SC5314 using primers ERG11_Probe_F (5′-[…]-3′) and ERG11_Probe_R (5′-[…]-3′) generated a 254-bp product, used as a probe for the ERG11 gene locus. The probe was labeled and prepared using an Amersham AlkPhos direct labeling and detection system (GE Life Sciences) and hybridized to the membrane through overnight incubation at 55°C. Bands containing the hybridized, alkaline phosphatase-labeled probe corresponding to either wild-type ERG11 alleles (2,678 bp) or successfully replaced alleles with the SAT1/FLP cassette included (4,318 bp) or recycled (3,119 bp) were visualized with the CDP-Star chemiluminescent detection reagent. To confirm the sequence of the replaced ERG11 allele, a DNA fragment containing the ERG11 ORF and approximately 435 bp upstream of the start codon and 229 bp downstream of the ERG11 stop codon was PCR amplified using primers CaERG11_A_(ApaI) (5′-[…]-3′) and CaERG11_E_(XhoI) (5′-[…]-3′). The resulting DNA fragment was purified and Sanger sequenced on an ABI model 3130XL genetic analyzer with the following sequencing primers: CaERG11SeqA (5′-[…]-3′), CaERG11SeqB (5′-[…]-3′), CaERG11SeqC (5′-[…]-3′), CaERG11SeqD (5′-[…]-3′), CaERG11SeqE (5′-[…]-3′), and CaERG11SeqF (5′-[…]-3′).
(§3) Azole MICs were determined using the broth microdilution method described by the Clinical Laboratory and Standards Institute ([45], [46]). […] Measurements were read visually at 24 h after incubation at 35°C for a 50% reduction in growth from that in the drug-free control wells. MIC measurements were performed in duplicate, and the MIC was reported as the higher of two values for all strains tested. In cases where the duplicate MIC values were not identical, the higher of the two MIC values is reported. […] Additionally, no MICs differed by more than 2 dilutions for a given strain and drug.

Test [4] concerns C. albicans SC5314 strain with CaCYP51 substitution G448E. In words: CLSI broth microdilution MIC. The note with it: for MIC: Candida albicans, SC5314, RPMI 1640, 24 h, 35°C, 50% reduction in growth. It counts as cell-based, Candida albicans.
From the text: as §2, §3
Background: Dilution methods test growth across graded concentrations, often in twofold steps.

Test [5] relates to C. albicans SC5314 strain with CaCYP51 substitution S405F. Description: CLSI broth microdilution MIC. It counts as cell-based, Candida albicans. The note with it: for MIC: Candida albicans, SC5314, RPMI 1640, 24 h, 35°C, 50% reduction in growth.
From the text: as §2, §3

Test [6] has as its system C. albicans SC5314 strain with CaCYP51 substitution F145L. In words: CLSI broth microdilution MIC. The class given is cell-based. The following applies: Candida albicans, RPMI 1640, 24 h, 35°C, 50% reduction in growth.
From the text: as §2, §3

Test [7] has as its system C. albicans SC5314 strain with CaCYP51 substitution G464S. In words: CLSI broth microdilution MIC. The note with it: Candida albicans, RPMI 1640, 24 h, 35°C, 50% reduction in growth. It counts as cell-based.
From the text: as §2, §3

For test [8], the system named is C. albicans SC5314 strain with CaCYP51 substitution K143R. In words: CLSI broth microdilution MIC. It counts as cell-based. The following applies: Candida albicans, RPMI 1640, 24 h, 35°C, 50% reduction in growth.
From the text: as §2, §3

The test system of test [9] is C. albicans SC5314 strain with CaCYP51 substitution Y132H. Description: CLSI broth microdilution MIC. It counts as cell-based. The following applies: Candida albicans, RPMI 1640, 24 h, 35°C, 50% reduction in growth.
From the text: as §2, §3

For test [10], the system named is fluconazole-susceptible parent strain SC5314. In words: CLSI broth microdilution MIC. The note with it: Candida albicans; parent strain SC5314, no substitution; RPMI 1640, 24 h, 35°C, 50% reduction in growth. The class given is cell-based.
From the text: as §2, §3

In test [11] the target is T3, CaCYP51 Y132H+K143R (Candida albicans, UniProt P10613, K143R/Y132H).
T3 construct: made in house; host or cells: E. coli DH5α (pCWori+)
In words: Azole ligand binding (type II difference spectra). The note with it: for Kd: 4 μM protein, 22°C, ± standard deviation, triplicate, read-out: dissociation constant (Kd). On the procedure:
Studies of azole antifungal binding to 4 μM CaCYP51 proteins were performed as previously described ([53]) using quartz split cuvettes with a 4.5-mm light path. […] Azole antifungals were progressively titrated against the CaCYP51 proteins in 0.1 M Tris-HCl (pH 8.1) and 25% glycerol at 22°C, with equivalent volumes of dimethyl sulfoxide also being added to the CYP51-containing compartment of the reference cuvette. The absorbance difference spectra between 500 and 350 nm were determined after each incremental addition of azole, with binding saturation curves constructed from the change in the peak and trough absorbance (ΔApeak-trough) against the azole concentration. The dissociation constant (Kd) of the enzyme-azole complex for each azole was determined by nonlinear regression (Levenberg-Marquardt algorithm) using a rearrangement of the Morrison equation for tight ligand binding ([54], [55]). Tight binding is normally observed when the Kd for a ligand is similar to or lower than the concentration of the enzyme present ([56]). Where ligand binding was weak, the Michaelis-Menten equation was used to fit the data. Each binding determination was performed in triplicate. The chemical structures of the azole antifungals used in this study are shown in Fig. S5 in the supplemental material.

Test [12] relates to C. albicans SC5314 strain with CaCYP51 substitution D278N. In words: CLSI broth microdilution MIC. It counts as cell-based. The following applies: Candida albicans, RPMI 1640, 24 h, 35°C, 50% reduction in growth.
From the text: as §2, §3

The values below come from publication PMC6496074, “The Evolution of Azole Resistance in Candida albicans Sterol 14α-Demethylase (CYP51) through Incremental Amino Acid Substitutions” (Antimicrobial Agents and Chemotherapy, 2019).

Molecules are shown by their SMILES. ≈ marks a conversion by molar mass, not a printed value.

T2 sequence (P10613 whole entry, looked up, stated change not applied): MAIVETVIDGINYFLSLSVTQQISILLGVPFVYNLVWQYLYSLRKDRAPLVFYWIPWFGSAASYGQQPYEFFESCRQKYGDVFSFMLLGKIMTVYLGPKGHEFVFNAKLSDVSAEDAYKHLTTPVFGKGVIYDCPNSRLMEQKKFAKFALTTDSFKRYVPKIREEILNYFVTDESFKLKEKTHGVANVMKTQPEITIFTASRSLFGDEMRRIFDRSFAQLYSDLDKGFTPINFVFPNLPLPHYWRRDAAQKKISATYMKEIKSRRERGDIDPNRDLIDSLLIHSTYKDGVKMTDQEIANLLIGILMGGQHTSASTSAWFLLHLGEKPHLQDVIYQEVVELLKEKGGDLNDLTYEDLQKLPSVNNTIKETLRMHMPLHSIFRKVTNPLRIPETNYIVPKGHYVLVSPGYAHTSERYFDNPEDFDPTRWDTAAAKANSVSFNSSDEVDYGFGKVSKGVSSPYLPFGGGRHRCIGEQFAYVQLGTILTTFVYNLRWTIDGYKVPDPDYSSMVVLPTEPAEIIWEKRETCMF
T1 sequence (P10613 whole entry, looked up, stated change not applied): as above
T3 sequence (P10613 whole entry, looked up, stated change not applied): as above

With `OC(Cn1cncn1)(Cn1cncn1)c1ccc(F)cc1F` [Fluconazole, fluconazole], the IC50 (commonly the midpoint of a concentration-inhibition curve) in [1] was 3.89 ± 0.077 µM; in [2], 5.86 ± 0.524 µM. Also, the remaining activity at 4 µM in test [1] turned out to be 49.1 ± 1.76%; in test [2], 62 ± 1.21%. In addition, the “fold increase in MIC over SC5314” value in [3] and in test [5] was “at least 2 fold” in each case. For the same compound, the MIC (usually the lowest concentration that inhibits growth of the organism) in test [3] stood at 8 mg/L (≈ 26.1 µM); in test [4], 8 mg/L (≈ 26.1 µM); in test [5], 4 mg/L (≈ 13.1 µM); in test [6], 4 mg/L (≈ 13.1 µM); in test [7], 8 mg/L (≈ 26.1 µM); in test [8] it was 16 mg/L (≈ 52.2 µM). For the same compound, the MIC in test [9] turned out to be 2 mg/L (≈ 6.53 µM); in [10], 1 mg/L (≈ 3.27 µM). In test [11], the “Kd, fold larger than wild-type enzyme” value is 362 fold. In test [11], the Kd (usually a measure of binding affinity in units of concentration) was determined as 18.1 µM.

On to `CCC(C)n1ncn(-c2ccc(N3CCN(c4ccc(OCC5COC(Cn6cncn6)(c6ccc(Cl)cc6Cl)O5)cc4)CC3)cc2)c1=O` (centres unmarked) [Itraconazole, itraconazole], for which the results for the concentration for half-maximal inhibition (IC50) in test [1] and in test [2] were 0.364 ± 0.023 µM and 0.19 ± 0.002 µM, respectively. The figures for the remaining activity at 4 µM in [1] and in test [2] were 0.91 ± 0.05% and 0.23 ± 0.13%, respectively. The MIC in [3] came to 0.25 mg/L (≈ 0.354 µM); in test [4] it was 0.25 mg/L (≈ 0.354 µM); in [5], 0.25 mg/L (≈ 0.354 µM); in [12], 0.125 mg/L (≈ 0.177 µM); in test [6], 0.25 mg/L (≈ 0.354 µM); in test [7], 0.25 mg/L (≈ 0.354 µM). The results for the MIC in [8], in test [9] and in test [10] were 0.5 mg/L (≈ 0.709 µM), 0.25 mg/L (≈ 0.354 µM) and 0.06 mg/L (≈ 0.085 µM), respectively. Besides, the equilibrium dissociation constant (Kd) in [11] worked out at 0.387 ± 0.117 µM.

`CC[C@@H]([C@H](C)O)n1ncn(-c2ccc(N3CCN(c4ccc(OC[C@@H]5CO[C@@](Cn6cncn6)(c6ccc(F)cc6F)C5)cc4)CC3)cc2)c1=O` [Posaconazole, posaconazole]: the values for the IC50 in test [1] and in test [2] were 0.433 ± 0.102 µM and 0.246 ± 0.024 µM, respectively. Further, the remaining activity at 4 µM is 2.64 ± 0.08% in test [1] and 0.86 ± 0.11% in [2]. The minimum inhibitory concentration (MIC) in test [3] was no more than 0.03 mg/L; in [4] it was 0.06 mg/L (≈ 0.0856 µM); in [5], no more than 0.03 mg/L; in test [12], no more than 0.03 mg/L; in [6] it was no more than 0.03 mg/L; in test [7], no more than 0.03 mg/L. Moreover, the minimal inhibitory concentration (MIC) in test [8], in test [9] and in test [10] was no more than 0.03 mg/L in each case. Also, the “fold increase in MIC over SC5314” value in [4] came out at 2 fold. The dissociation constant (Kd) in [11] stood at 0.162 ± 0.059 µM.

Regarding `C[C@@H](c1ncncc1F)[C@](O)(Cn1cncn1)c1ccc(F)cc1F` [Voriconazole, voriconazole], the results for the remaining activity at 4 µM in [1] and in test [2] were 13.6 ± 0.19% and 8.86 ± 1.09%, respectively. The MIC in [3] is 0.25 mg/L (≈ 0.716 µM); in [4] it was 0.25 mg/L (≈ 0.716 µM); in [5], 0.25 mg/L (≈ 0.716 µM); in test [12], no more than 0.03 mg/L; in [6], 0.5 mg/L (≈ 1.43 µM); in [7] it was 0.25 mg/L (≈ 0.716 µM). The MIC in test [8] was 0.5 mg/L (≈ 1.43 µM); in test [9] it was 0.25 mg/L (≈ 0.716 µM); in test [10], no more than 0.03 mg/L.
